“Also recorded” adds a separate entry of the source.

Common to all, as to format: physicochemical
The nature of series [1]: Inversion test for hydrogel formation (gelation). As to conditions: for Gelation result: 37° C., 24 hours. On the procedure: An inversion test was used to qualitatively assess different solvent conditions and concentrations of 1 and 2 for forming a non-flowing, self-supporting stable hydrogel (Liebman, T., et al., 2007). Peptide solubility was tested using a variety of solvents and solvent mixtures: MilliQ (ultrapure) water, phosphate buffered saline (PBS) 1× (Sigma P3813), PBS 10× (Sigma P3813) and Dulbecco's Modified Eagle's Medium/Nutrient Mixture F-12 Ham (DMEM/F12) (Sigma D8437). 100 μL or 50 μL of solvent was added to 0.5 mg of peptide in a glass vial to achieve a final concentration of 5 or 10 mg/mL, respectively. The solution was vortexed up to 30 mins until all the peptide particles had dissolved and left to self-assemble and gelate for 30 minutes at room temperature.

A short description of series [2]: Atomic force microscopy of peptide self-assembly. As to conditions: ultrapure water, 0.25 mg/mL. Here is the method:
To confirm the self-assembly of β-tetrapeptides 1 and 2 into fibres, atomic force microscopy (AFM) was performed on a Nanoscope IV AFM with a Multimode head using a vertical engage ‘E’ scanner. A 2 μL peptide solution in MilliQ (ultrapure) water (0.25 mg/mL) was prepared and placed on a clean mica surface. A low concentration of peptide was necessary to avoid contamination the probe. The peptide solution was air-dried for 30 minutes, followed by further drying with a stream of N2 gas. Images were obtained under tapping mode with NSC-15 ‘B’ silicon cantilevers (Micromasch, Tallinn, Estonia) with a nominal force constant of 40 and 20 N/m for 1 and 2, respectively. Topographic, phase and amplitude images at a resolution of 512×512 were simultaneously obtained using scan frequency of 1 Hz with typical scan sizes of 5 μm×5 μm and 2 μm×2 μm. Images were processed with a sequence of plane fitting and offset flattening using Gwyddion 2.29 (www.gwyddion.net) software.

Series [3] is described as follows: Rheological characterisation (parallel plate rheometer). As to conditions: strain sweep 1% to 100% over 20 minutes, 1 Hz, 37° C. Here is the method: Rheological measurements were undertaken using an Anton Paar Physical parallel plate rheometer at 37° C. Hydrogels were prepared in 75% MilliQ Water/25% DMEM/F12 using 10 mg/mL of the following: 100% 1, 50% 1/50% 2, and 100% 2. The hydrogel solutions were made just prior to experiment and vortexed thoroughly, and then immediately pipetted onto the base. A top plate with diameter 8 mm was lowered to form a measurement gap size of 0.1 mm. In an oscillatory time sweep test, the storage (elastic, G′) and loss (viscous, G″) moduli were measured with strain applied at 1% at a constant frequency of 1 Hz. For the cyclic step-strain test, after 20 minutes, the strain was increased to 100% for 1 minute to mechanically shear the hydrogel before it is returned to 1% strain. This was repeated an additional 2 times. The plateau modulus was calculated as the average of the storage modulus at the end of each 20-minute gelation cycle. A strain sweep was conducted from 1% to 100% strain over the 20 minutes with a constant frequency of 1 Hz. The gel-to-sol transition point was determined at the strain at which the storage and loss modulus equalled in value. A dynamic frequency sweep was performed from 0.01 to 10 Hz with a constant strain of 1%. All measurements were obtained in triplicate and all figures are presented as the average of those triplicates.

Setting [4] is: 50% MilliQ Water/50% DMEM/F12, 5 mg/mL.
The mark [5] stands for this setting: 50% MilliQ Water/50% DMEM/F12, 10 mg/mL.
Where [6] appears, read: 75% MilliQ Water/25% DMEM/F12, 5 mg/mL.
The mark [7] stands for this setting: 75% MilliQ Water/25% DMEM/F12, 10 mg/mL.

Consider `CCCCCCCCCCCCCC(=O)NCC(CC(=O)NC(C)CC(=O)NC(CCCCN)CC(=O)NC1COC(=O)C1)NC(C)=O` (stereo not drawn) [compound 1, Ac-Az(Myr)AKS*-Lac], for which the “time within which the hydrogel reverts back to a solution” value in series [1] (1:1 MilliQ Water and DMEM/F12, both 5 and 10 mg/mL) is at most 24 h. In addition, in series [1] (3:1 MilliQ Water:DMEM/F12, 10 mg/mL), the “duration of stable hydrogel under physiological conditions” value is “over several weeks”. For the same molecule, the Gelation result was “Unstable gel” in series [1] (setting [4]); “Unstable gel” in series [1] (setting [5]); “Unstable gel” in series [1] (setting [6]); “long-lasting stable hydrogel; also recorded: Stable gel” in series [1] (setting [7]); “Liquid (liquid (has the same flow as water))” in series [1] (DMEM/F12, 5 mg/mL); “Poor dissolution” in series [1] (DMEM/F12, 10 mg/mL). Besides, the Gelation result is on record as “Liquid (liquid (has the same flow as water))” in series [1] (MilliQ water, 5 mg/mL); “more viscous solution; also recorded: Viscous liquid” in series [1] (MilliQ water, 10 mg/mL); “Viscous liquid” in series [1] (PBS 1×, 5 mg/mL); “prevented the peptide from being completely dissolved; also recorded: Poor dissolution” in series [1] (PBS 1×, 10 mg/mL); “Viscous liquid” in series [1] (PBS 10×, 5 mg/mL); “prevented the peptide from being completely dissolved; also recorded: Poor dissolution” in series [1] (PBS 10×, 10 mg/mL). Further, the peptide dissolution entry in series [1] (MilliQ water, both 5 and 10 mg/mL) is on record as “readily dissolved”. Further, the “entanglement of the fibres (AFM)” value in series [2] is “propensity for the nanofibres to aggregate together and form bundles”. The “spontaneous self-assembly into fibres (AFM)” value in series [2] was “distinct nanofibres”.
As to `CCCCCCCCCCCCCC(=O)NCC(CC(=O)NC(C)CC(=O)NC(CC(=O)NC1COC(=O)C1)C(=O)NCCNC(=O)C(CC(=O)O)NC(=O)CNC(=O)C(CCCNC(=N)N)NC(C)=O)NC(C)=O` (stereo not drawn) [compound 2, Ac-Az(Myr)AX(RGD)S*-Lac], the peptide dissolution result in series [1] (5 mg/mL, MilliQ water, PBS 1×, PBS 10×, DMEM and 50% MQ Water/50% DMEM/F12) is recorded as “readily dissolved”. For the same molecule, the Gelation result is “liquid solution; also recorded: Liquid (liquid (has the same flow as water))” in series [1] (setting [4]); “Unstable gel” in series [1] (setting [5]); “Unstable gel” in series [1] (setting [6]); “Stable gel” in series [1] (setting [7]); “liquid solution; also recorded: Liquid (liquid (has the same flow as water))” in series [1] (DMEM/F12, 5 mg/mL); “Unstable gel” in series [1] (DMEM/F12, 10 mg/mL). Moreover, the Gelation result in series [1] (MilliQ water, 5 mg/mL) is “liquid solution; also recorded: Liquid (liquid (has the same flow as water))”; in series [1] (MilliQ water, 10 mg/mL) it was “Liquid (liquid (has the same flow as water))”; in series [1] (PBS 1×, 5 mg/mL), “liquid solution; also recorded: Liquid (liquid (has the same flow as water))”; in series [1] (PBS 1×, 10 mg/mL) it was “Viscous liquid”; in series [1] (PBS 10×, 5 mg/mL) it was “liquid solution; also recorded: Liquid (liquid (has the same flow as water))”; in series [1] (PBS 10×, 10 mg/mL) it was “Poor dissolution”. Besides, the “entanglement of the fibres (AFM)” value in series [2] is “more wide-spread and mesh-like”. In series [2], the “spontaneous self-assembly into fibres (AFM)” value is listed as “distinct nanofibres”. Moreover, the “Strain for gel-to-sol Transition” value in series [3] is listed as 31%.

For the origin of these results see patent US20260108612A1, “BETA-PEPTIDES AND BETA-PEPTIDE HYDROGELS” (MONASH UNIVERSITY, priority 2022, published 2026).
